Experimental data: ChEMBL document CHEMBL5212743, “Selectivity Literature for EUbOPEN Chemogenomics Library wave 3” (2023)
pIC50: −log10 of the molar value. Blank lines part the entries; values can stand above or below the compound they belong to.

Tests used:
[1] = system: Tyrosine-protein kinase ABL1 (Homo sapiens), P00519 [M351T]; assay: (§1) Selectivity interaction (KinomeScan (DiscoverX)) EUB0000178b ABL1; conditions: at 1 µM
[2] = system: Tyrosine-protein kinase ABL1 (Homo sapiens), P00519 [Q252H]; assay: as §1; conditions: at 1 µM
[3] = system: Tyrosine-protein kinase ABL1 (Homo sapiens), P00519 [T315I]; assay: as §1; conditions: at 1 µM
[4] = biological target: T1, Ephrin type-B receptor 6 (Homo sapiens) (UniProt O15197); conditions: at 1 µM
T1 sequence (whole entry): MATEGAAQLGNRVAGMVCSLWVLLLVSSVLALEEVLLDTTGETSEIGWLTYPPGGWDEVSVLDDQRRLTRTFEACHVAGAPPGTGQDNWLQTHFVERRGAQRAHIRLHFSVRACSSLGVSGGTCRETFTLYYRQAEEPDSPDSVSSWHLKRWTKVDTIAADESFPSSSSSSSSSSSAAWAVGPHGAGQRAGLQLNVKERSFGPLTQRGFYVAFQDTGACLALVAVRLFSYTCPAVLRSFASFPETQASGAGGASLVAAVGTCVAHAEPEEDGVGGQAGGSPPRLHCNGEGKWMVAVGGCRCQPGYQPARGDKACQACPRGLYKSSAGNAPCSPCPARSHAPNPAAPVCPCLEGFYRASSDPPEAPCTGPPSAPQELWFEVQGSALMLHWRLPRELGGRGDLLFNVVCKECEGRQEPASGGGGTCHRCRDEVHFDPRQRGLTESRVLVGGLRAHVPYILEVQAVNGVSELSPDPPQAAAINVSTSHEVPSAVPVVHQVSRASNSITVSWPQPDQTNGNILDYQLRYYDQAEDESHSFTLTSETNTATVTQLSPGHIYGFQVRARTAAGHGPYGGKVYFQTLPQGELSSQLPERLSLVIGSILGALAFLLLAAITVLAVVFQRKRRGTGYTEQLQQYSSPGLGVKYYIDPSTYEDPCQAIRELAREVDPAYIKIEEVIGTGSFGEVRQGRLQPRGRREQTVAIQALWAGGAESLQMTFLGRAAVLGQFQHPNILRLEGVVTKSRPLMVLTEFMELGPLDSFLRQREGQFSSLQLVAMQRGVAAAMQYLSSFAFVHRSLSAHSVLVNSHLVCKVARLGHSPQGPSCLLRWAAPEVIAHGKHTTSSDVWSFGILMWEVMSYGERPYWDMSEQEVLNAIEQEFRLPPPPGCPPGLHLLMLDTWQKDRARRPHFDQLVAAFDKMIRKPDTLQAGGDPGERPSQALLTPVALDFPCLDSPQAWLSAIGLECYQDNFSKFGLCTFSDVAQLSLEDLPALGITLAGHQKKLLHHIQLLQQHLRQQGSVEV

[5] = biological target: Cyclin-dependent kinase 8 (Homo sapiens) (UniProt P49336); conditions: at 1 µM
[6] = biological target: Muscle, skeletal receptor tyrosine-protein kinase (Homo sapiens) (UniProt O15146); conditions: at 1 µM
[7] = biological target: Mitogen-activated protein kinase kinase kinase kinase 5 (Homo sapiens) (UniProt Q9Y4K4); conditions: at 1 µM
[8] = biological target: Tyrosine-protein kinase HCK (Homo sapiens, UniProt P08631); conditions: at 1 µM
[9] = biological target: NT-3 growth factor receptor (Homo sapiens, UniProt Q16288); conditions: at 1 µM
[10] = biological target: Tyrosine-protein kinase Blk (Homo sapiens, UniProt P51451); conditions: at 1 µM
[11] = biological target: STE20-like serine/threonine-protein kinase (Homo sapiens, UniProt Q9H2G2); assay: Selectivity interaction (KinomeScan (DiscoverX)) EUB0000698a SLK; conditions: at 10 µM
[12] = biological target: T2, Cyclin-dependent kinase 2 (Homo sapiens, UniProt P24941); assay: Selectivity interaction (Kinase panel (enzymatic assay)) EUB0000698a CDK2
[13] = biological target: T2, Cyclin-dependent kinase 2; assay: Selectivity interaction (Kinase panel (University of Dundee)) EUB0000169b CDK2; conditions: at 10 µM
[14] = biological target: MAP kinase-activated protein kinase 5 (Homo sapiens) (UniProt Q8IW41); conditions: at 10 µM
[15] = biological target: T3, Mitogen-activated protein kinase 12 (Homo sapiens) (UniProt P53778); conditions: at 10 µM
T3 sequence (whole entry): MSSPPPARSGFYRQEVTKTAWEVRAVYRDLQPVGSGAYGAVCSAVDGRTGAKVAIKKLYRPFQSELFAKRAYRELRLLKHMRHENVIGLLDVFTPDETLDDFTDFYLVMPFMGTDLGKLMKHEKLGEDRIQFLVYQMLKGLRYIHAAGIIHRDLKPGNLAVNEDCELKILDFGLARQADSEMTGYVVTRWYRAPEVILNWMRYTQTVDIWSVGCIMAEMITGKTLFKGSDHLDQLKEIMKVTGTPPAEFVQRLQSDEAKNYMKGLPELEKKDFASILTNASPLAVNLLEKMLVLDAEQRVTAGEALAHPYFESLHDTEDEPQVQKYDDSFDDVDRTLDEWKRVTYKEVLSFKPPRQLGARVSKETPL

[16] = biological target: Dual specificity mitogen-activated protein kinase kinase 1 (Homo sapiens, UniProt Q02750); assay: Selectivity interaction (Kinase panel (University of Dundee)) EUB0000169b MAP2K1; conditions: at 10 µM
[17] = biological target: Casein kinase II subunit alpha' (Homo sapiens) (UniProt P19784); assay: Selectivity interaction (KinomeScan (DiscoverX)) EUB0000702a CSNK2A2; conditions: at 1 µM
[18] = biological target: NUAK family SNF1-like kinase 2 (Homo sapiens) (UniProt Q9H093); assay: Selectivity interaction (KinomeScan (DiscoverX)) EUB0000702a NUAK2; conditions: at 1 µM
[19] = biological target: Mitogen-activated protein kinase kinase kinase 1 (Homo sapiens) (UniProt Q13233); assay: Selectivity interaction (KinomeScan (DiscoverX)) EUB0000702a MAP3K1; conditions: at 1 µM
[20] = biological target: T4, Dual specificity mitogen-activated protein kinase kinase 5 (Homo sapiens, UniProt Q13163); assay: Selectivity interaction (Enzymatic assay) EUB0000305b MAP2K5
T4 sequence (Q13163 whole entry): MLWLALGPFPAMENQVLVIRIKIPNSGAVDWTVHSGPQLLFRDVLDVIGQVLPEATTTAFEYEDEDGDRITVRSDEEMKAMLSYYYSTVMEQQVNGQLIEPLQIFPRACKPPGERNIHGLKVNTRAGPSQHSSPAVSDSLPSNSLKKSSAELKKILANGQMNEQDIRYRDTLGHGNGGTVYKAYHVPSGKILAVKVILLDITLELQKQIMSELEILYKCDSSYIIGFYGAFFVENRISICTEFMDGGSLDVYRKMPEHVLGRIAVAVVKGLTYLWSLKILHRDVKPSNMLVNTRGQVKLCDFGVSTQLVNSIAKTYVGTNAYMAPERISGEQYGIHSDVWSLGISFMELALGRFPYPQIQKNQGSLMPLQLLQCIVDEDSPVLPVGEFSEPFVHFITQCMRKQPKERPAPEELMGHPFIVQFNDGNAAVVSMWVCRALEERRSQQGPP

NT-3 growth factor receptor, sequence (Q16288 whole entry, looked up): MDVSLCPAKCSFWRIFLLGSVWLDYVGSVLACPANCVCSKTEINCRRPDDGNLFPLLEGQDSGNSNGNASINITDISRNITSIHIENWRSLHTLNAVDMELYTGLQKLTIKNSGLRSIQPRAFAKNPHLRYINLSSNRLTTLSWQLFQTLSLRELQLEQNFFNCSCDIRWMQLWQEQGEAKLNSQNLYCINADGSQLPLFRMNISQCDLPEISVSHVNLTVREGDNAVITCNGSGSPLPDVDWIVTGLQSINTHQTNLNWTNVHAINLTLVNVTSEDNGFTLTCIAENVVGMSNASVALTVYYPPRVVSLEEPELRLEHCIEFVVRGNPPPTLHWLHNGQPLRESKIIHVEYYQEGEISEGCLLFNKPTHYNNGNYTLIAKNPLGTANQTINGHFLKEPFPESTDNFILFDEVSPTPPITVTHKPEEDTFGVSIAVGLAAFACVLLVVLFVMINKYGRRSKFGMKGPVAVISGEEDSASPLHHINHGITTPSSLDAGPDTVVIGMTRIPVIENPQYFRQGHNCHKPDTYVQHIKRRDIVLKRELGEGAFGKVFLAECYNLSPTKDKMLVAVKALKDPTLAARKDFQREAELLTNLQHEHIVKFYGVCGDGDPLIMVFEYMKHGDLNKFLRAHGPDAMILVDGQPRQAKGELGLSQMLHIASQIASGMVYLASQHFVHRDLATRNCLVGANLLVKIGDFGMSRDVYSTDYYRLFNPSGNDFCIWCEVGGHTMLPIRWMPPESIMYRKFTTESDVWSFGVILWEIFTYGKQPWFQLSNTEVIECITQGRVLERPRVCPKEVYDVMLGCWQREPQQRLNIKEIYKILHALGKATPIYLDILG
Cyclin-dependent kinase 8 (Homo sapiens), sequence (P49336 whole entry): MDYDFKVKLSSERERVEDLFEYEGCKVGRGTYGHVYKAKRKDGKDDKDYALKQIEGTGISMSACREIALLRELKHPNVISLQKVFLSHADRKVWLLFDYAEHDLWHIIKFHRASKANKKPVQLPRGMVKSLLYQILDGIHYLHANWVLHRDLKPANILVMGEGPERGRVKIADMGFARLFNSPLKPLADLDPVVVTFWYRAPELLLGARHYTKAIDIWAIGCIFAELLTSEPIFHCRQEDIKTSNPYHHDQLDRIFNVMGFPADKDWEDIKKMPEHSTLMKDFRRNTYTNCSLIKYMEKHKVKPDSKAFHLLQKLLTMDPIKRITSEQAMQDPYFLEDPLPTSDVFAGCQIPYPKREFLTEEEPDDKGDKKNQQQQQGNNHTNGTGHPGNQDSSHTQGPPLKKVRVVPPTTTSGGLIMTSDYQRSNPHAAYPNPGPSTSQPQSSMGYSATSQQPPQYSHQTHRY
Mitogen-activated protein kinase kinase kinase kinase 5 (Homo sapiens), sequence (Q9Y4K4 whole entry, looked up): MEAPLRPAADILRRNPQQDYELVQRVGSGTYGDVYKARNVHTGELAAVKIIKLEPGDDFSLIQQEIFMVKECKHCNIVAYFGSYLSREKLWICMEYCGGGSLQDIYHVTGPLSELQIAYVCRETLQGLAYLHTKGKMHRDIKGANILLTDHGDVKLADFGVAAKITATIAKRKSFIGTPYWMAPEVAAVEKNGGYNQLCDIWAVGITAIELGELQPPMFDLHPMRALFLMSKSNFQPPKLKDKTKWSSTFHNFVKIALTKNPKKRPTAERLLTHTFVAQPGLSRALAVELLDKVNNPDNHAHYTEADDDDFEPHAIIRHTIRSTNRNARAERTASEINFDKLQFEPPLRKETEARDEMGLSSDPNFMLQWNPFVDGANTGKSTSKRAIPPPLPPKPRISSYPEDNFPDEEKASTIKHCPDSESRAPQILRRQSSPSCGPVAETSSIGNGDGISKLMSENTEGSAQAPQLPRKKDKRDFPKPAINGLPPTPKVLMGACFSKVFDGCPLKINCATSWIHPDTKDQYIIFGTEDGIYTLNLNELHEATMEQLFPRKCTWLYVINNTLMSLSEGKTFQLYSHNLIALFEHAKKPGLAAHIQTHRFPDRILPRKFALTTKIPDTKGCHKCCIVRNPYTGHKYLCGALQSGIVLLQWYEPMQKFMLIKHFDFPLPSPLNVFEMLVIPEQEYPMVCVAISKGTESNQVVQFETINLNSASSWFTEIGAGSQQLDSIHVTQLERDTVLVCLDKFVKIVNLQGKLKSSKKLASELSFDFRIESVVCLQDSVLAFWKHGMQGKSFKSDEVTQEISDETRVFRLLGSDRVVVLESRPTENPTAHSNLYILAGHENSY
Tyrosine-protein kinase Blk, sequence (P51451 whole entry, looked up): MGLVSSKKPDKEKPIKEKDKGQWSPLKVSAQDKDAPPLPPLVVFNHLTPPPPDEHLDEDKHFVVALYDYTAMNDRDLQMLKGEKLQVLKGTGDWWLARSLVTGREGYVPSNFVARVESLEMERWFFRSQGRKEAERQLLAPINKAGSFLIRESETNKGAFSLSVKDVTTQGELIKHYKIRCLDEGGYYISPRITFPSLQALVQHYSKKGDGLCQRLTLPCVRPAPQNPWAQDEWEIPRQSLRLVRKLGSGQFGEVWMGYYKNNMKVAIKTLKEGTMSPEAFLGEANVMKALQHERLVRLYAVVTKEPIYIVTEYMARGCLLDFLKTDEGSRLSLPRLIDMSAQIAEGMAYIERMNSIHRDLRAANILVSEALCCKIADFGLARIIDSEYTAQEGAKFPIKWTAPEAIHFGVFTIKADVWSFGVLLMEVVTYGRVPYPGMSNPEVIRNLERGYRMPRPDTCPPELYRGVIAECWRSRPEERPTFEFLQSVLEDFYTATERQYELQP
NUAK family SNF1-like kinase 2 (Homo sapiens), sequence (Q9H093 whole entry): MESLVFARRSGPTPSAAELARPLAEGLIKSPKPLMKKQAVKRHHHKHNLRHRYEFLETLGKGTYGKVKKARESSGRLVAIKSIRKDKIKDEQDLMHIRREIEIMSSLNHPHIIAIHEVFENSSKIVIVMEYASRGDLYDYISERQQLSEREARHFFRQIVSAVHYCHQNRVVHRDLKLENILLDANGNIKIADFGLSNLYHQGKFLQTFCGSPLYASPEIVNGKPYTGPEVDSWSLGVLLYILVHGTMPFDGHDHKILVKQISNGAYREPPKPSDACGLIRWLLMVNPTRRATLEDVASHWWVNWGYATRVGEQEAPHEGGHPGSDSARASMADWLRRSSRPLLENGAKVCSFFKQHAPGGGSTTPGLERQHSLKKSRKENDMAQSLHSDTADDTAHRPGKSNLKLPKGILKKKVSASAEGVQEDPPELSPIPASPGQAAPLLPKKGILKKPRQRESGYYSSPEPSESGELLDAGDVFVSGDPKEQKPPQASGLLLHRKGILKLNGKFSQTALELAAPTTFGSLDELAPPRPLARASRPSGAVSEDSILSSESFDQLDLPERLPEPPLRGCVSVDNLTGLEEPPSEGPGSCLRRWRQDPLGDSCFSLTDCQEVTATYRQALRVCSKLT
Muscle, skeletal receptor tyrosine-protein kinase (Homo sapiens), sequence (O15146 whole entry): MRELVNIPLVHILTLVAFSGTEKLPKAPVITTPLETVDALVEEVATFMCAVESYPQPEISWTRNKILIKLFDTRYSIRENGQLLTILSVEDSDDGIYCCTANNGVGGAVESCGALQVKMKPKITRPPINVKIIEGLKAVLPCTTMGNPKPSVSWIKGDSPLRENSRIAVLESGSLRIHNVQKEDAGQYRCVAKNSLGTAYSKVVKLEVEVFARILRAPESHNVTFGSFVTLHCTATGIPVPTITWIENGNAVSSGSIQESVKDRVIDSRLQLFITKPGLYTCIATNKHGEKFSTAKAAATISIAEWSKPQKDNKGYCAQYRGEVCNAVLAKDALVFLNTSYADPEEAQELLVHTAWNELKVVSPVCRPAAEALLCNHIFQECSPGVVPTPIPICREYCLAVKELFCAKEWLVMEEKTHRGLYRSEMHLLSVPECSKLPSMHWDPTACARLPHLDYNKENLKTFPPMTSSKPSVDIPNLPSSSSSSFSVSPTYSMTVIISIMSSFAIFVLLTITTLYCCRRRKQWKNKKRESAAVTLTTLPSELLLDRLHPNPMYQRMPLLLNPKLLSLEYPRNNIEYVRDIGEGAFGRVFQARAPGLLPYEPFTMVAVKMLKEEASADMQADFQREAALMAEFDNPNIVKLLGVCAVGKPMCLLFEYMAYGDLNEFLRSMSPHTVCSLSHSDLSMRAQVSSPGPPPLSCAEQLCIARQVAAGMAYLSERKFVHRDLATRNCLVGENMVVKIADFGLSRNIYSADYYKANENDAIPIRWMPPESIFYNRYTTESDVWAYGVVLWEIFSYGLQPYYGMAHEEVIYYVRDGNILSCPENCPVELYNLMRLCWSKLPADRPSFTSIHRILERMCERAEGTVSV
Casein kinase II subunit alpha' (Homo sapiens), sequence (P19784 whole entry, looked up): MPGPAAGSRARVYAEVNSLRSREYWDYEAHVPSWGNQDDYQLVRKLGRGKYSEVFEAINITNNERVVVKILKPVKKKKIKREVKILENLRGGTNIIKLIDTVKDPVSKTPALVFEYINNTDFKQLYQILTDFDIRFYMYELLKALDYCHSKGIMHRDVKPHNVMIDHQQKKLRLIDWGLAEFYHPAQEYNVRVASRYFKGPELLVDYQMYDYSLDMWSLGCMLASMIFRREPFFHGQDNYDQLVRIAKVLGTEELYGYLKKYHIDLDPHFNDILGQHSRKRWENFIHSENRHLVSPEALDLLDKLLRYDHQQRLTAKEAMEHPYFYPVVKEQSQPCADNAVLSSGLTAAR
Dual specificity mitogen-activated protein kinase kinase 1, sequence (Q02750 whole entry): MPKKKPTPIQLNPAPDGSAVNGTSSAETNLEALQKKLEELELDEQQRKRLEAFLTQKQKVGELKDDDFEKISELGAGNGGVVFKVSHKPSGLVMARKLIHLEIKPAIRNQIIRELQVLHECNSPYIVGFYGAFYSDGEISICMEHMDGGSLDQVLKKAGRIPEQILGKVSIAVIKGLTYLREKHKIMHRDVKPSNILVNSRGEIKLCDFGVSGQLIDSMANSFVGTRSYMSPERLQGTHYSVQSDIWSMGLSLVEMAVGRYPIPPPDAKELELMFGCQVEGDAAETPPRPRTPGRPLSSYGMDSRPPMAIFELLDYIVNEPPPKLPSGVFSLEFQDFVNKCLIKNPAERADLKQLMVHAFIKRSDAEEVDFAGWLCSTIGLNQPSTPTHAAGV

Structure (SMILES): CN1C(=O)c2sccc2N(C)c2nc(Nc3ccc(S(N)(=O)=O)cc3)ncc21
% of control [1]: 5.5%
% of control [2]: 6.8%
% of control [3]: 1.6%

Structure (SMILES): CCOc1cn(-c2ccc(F)cc2C)nc1C(=O)Nc1ccc(Oc2ccnc3cc(OC)c(OC)cc23)c(F)c1
% of control [4]: < 10%
% of control [5]: < 10%
% of control [6]: < 10%
% of control [7]: < 10%
% of control [8]: < 10%
% of control [9]: < 10%
% of control [10]: < 10%

Structure (SMILES): COc1cc2ncn(-c3cc(OCc4ccccc4C(F)(F)F)c(C(N)=O)s3)c2cc1OC [GW843682X]
% of control [11]: 0.3%
pIC50 [12]: 5.12

Structure (SMILES): CC[C@@H]1C(=O)N(C)c2cnc(Nc3ccc(C(=O)NC4CCN(C)CC4)cc3OC)nc2N1C1CCCC1
% of control [13]: 20%
% of control [14]: 86%
% of control [15]: 112%
% of control [16]: 115%

Other lines, results leading:

% of control [17]: 66.7%
% of control [18]: 7.6%
% of control [19]: 0%
Structure (SMILES): CN(c1ccnc(CNc2nc(Nc3ccc4c(c3)CC(=O)N4)ncc2C(F)(F)F)n1)S(C)(=O)=O [PF-00911705]

pIC50 [20]: 6.07
Structure (SMILES): C[C@H](c1ccnc(Nc2nc3ccc(-c4cc(N(C)C)ncn4)cc3[nH]2)c1)N1CCN(C(=O)CC(F)(F)F)CC1 [BAY-985]
